Reference: ChEMBL document CHEMBL1221210, “A Cdc7 kinase inhibitor restricts initiation of DNA replication and has antitumor activity” (Nat Chem Biol, 2008)

Key:
HeLa [1] = experiment: Inhibition of DNA replication in human HeLa cells assessed as interorigin distance between homogenous DNA fibers at 2 uM after 4 hrs by immunofluorescence assay; assay type: functional
HeLa [2] = experiment: Inhibition of DNA replication in human HeLa cells assessed as interorigin distance between homogenous DNA fibers at 5 uM after 6 hrs by immunofluorescence assay; assay type: functional
HeLa [3] = experiment: Inhibition of DNA replication in human HeLa cells assessed as interorigin distance between homogenous DNA fibers at 20 uM after 2 hrs by immunofluorescence assay; assay type: functional
HeLa [4] = experiment: Inhibition of DNA replication in human HeLa cells assessed as increase in replication fork speed per min at 2 uM after 4 hrs by immunofluorescence assay; assay type: functional
HeLa [5] = experiment: Inhibition of DNA replication in human HeLa cells assessed as increase in replication fork speed per min at 2 uM after 6 hrs by immunofluorescence assay; assay type: functional
HeLa [6] = experiment: Inhibition of DNA replication in human HeLa cells assessed as increase in replication fork speed per min at 5 uM after 4 hrs by immunofluorescence assay; assay type: functional
HeLa [7] = experiment: Inhibition of DNA replication in human HeLa cells assessed as increase in replication fork speed per min at 20 uM after 2 hrs by immunofluorescence assay; assay type: functional
HeLa [8] = experiment: Inhibition of DNA replication in human HeLa cells assessed as increase in replication fork speed per min at 20 uM after 6 hrs by immunofluorescence assay; assay type: functional
NHDF [9] = experiment: Induction of cell cycle arrest in NHDF expressing p53 gene assessed as accumulation at subG1 phase at 0.1 uM after 24hrs by FACS analysis; assay type: cell-based; details: human
HeLa [10] = experiment: Inhibition of DNA synthesis in human HeLa cells assessed as Brd-U uptake at 5 uM after 6 hrs by FACS analysis; assay type: functional; design: scale not given: the % may be the effect or the level left
NHDF [11] = experiment: Induction of cell cycle arrest in thymidine deficient NHDF assessed as DNA synthesis in S-phase at 5 uM after 2hrs FACS analysis; assay type: cell-based; details: human
Rattus norvegicus = experiment: AUC in rat carrying DMBA-induced mammary carcinoma at 10 mg/kg, iv after 10 hrs; assay type: ADME, organism-based, Plasma; design: time < 10 hr, dose 10 mg/kg, route intravenous; details: in vivo
[12] = Clearance in SCID mouse carrying human HL60 cells at 20 mg/kg or 30 mg/kg, iv after 10 hrs; assay type: ADME, organism-based, HL-60; details: in vivo
[13] = Inhibition of Ck2
[14] = target: Serine/threonine-protein kinase NIM1 (Homo sapiens, UniProt Q8IY84); experiment: Inhibition of NIM1
Serine/threonine-protein kinase NIM1, sequence (Q8IY84 whole entry): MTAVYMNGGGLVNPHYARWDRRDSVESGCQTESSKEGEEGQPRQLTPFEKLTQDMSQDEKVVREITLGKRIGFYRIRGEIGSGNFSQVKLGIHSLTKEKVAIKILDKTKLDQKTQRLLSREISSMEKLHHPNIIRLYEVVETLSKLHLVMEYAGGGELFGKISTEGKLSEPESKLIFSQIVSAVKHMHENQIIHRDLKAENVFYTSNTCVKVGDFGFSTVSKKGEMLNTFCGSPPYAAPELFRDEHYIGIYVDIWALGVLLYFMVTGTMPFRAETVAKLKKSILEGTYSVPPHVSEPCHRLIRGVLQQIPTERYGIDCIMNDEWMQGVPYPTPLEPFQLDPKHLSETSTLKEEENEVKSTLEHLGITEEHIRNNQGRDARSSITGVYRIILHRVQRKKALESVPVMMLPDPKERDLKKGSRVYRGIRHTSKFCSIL

[15] = target: Mitogen-activated protein kinase 11 (Homo sapiens, UniProt Q15759); experiment: Inhibition of P38beta
Mitogen-activated protein kinase 11, sequence (Q15759 whole entry): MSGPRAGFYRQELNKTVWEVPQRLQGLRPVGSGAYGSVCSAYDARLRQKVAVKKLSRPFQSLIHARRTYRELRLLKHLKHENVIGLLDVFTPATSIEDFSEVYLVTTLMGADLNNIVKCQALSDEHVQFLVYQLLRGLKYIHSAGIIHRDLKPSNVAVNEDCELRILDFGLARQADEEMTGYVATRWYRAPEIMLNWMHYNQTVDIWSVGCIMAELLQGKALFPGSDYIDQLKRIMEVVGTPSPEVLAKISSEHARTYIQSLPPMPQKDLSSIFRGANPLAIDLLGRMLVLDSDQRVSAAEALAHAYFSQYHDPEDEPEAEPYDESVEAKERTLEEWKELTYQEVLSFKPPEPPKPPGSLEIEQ

[16] = Inhibition of PDGFR
SF-268 [17] = experiment: Antiproliferative activity against p53 deficient human SF268 cells after 72 hrs; assay type: functional, cell-based; details: SF-268, 72 h
K562 [18] = experiment: Antiproliferative activity against p53 deficient human K562 cells after 72 hrs; assay type: functional, cell-based; details: K562, 72 h
Jurkat [19] = experiment: Antiproliferative activity against p53 deficient human Jurkat cells after 72 hrs by proliferative assay; assay type: functional, cell-based
SF-539 = experiment: Antiproliferative activity against human SF539 cells expressing p53 gene after 72 hrs by proliferative assay; assay type: functional, cell-based; details: SF-539, 72 h
SF-268 [20] = experiment: Induction of cell cycle arrest in p53 deficient human SF268 cells assessed as accumulation at subG1 phase at 5 uM after 24 hrs FACS analysis; assay type: functional
SW480 [21] = experiment: Induction of cell cycle arrest in p53 deficient human SW480 cells assessed as accumulation at subG1 phase at 5 uM after 24hrs by FACS analysis; assay type: functional
COLO 205 [22] = experiment: Induction of cell cycle arrest in p53 deficient human COLO205 cells assessed as accumulation at subG1 phase at 5 uM after 24hrs by FACS analysis; assay type: functional
OVCAR-8 [23] = experiment: Induction of cell cycle arrest in p53 deficient human OVCAR8 cells assessed as accumulation at subG1 phase at 5 uM after 24hrs by FACS analysis; assay type: functional
HCT-15 = experiment: Induction of cell cycle arrest in human HCT15 cells expressing p53 gene assessed as accumulation at subG1 phase at 5 uM after 24hrs by FACS analysis; assay type: functional
A2780 = experiment: Induction of cell cycle arrest in human A2780 cells expressing p53 gene assessed as accumulation at subG1 phase at 5 uM after 24hrs by FACS analysis; assay type: functional
K562 [24] = experiment: Induction of cell cycle arrest in p53 deficient human K562 cells assessed as accumulation at subG1 phase at 10 uM after 24hrs by FACS analysis; assay type: functional
HeLa [25] = experiment: Induction of cell cycle arrest in p53 deficient human HeLa cells assessed as accumulation at subG1 phase at 10 uM after 24hrs by FACS analysis; assay type: functional
Jurkat [26] = experiment: Induction of cell cycle arrest in p53 deficient human Jurkat cells assessed as accumulation at subG1 phase at 10 uM after 24hrs by FACS analysis; assay type: functional
[27] = Induction of cell cycle arrest in p53 deficient human A2780/E6 cells assessed as accumulation at subG1 phase at 10 uM after 24hrs by FACS analysis; assay type: functional
HCT-116 = experiment: Induction of cell cycle arrest in human HCT116 cells expressing p53 gene assessed as accumulation at subG1 phase at 10 uM after 24 hrs by FACS analysis; assay type: functional
NHDF [28] = experiment: Induction of cell cycle arrest in NHDF expressing p53 gene assessed as accumulation at subG1 phase at 10 uM after 24 hrs by FACS analysis; assay type: cell-based; details: human
SF-268 [29] = experiment: Induction of cell cycle arrest in p53 deficient human SF268 cells assessed as residual DNA synthesis at 5 uM after 24 hrs FACS analysis; assay type: functional
K562 [30] = experiment: Induction of cell cycle arrest in p53 deficient human K562 cells assessed as residual DNA synthesis at 5 uM after 24hrs by FACS analysis; assay type: functional
COLO 205 [31] = experiment: Induction of cell cycle arrest in p53 deficient human COLO205 cells assessed as residual DNA synthesis at 5 uM after 24 hrs by FACS analysis; assay type: functional
[32] = Induction of cell cycle arrest in p53 deficient human A2780/E6 cells assessed as residual DNA synthesis at 5 uM after 24 hrs by FACS analysis; assay type: functional
OVCAR-8 [33] = experiment: Induction of cell cycle arrest in p53 deficient human OVCAR8 cells assessed as residual DNA synthesis at 5 uM after 24hrs by FACS analysis; assay type: functional
MCF7 = experiment: Induction of cell cycle arrest in human MCF7 cells expressing p53 gene assessed as residual DNA synthesis at 5 uM after 24 hrs by FACS analysis; assay type: functional
K562 [34] = experiment: Induction of cell cycle arrest in p53 deficient human K562 cells assessed as residual DNA synthesis at 10 uM after 24 hrs by FACS analysis; assay type: functional
SW480 [35] = experiment: Induction of cell cycle arrest in p53 deficient human SW480 cells assessed as residual DNA synthesis at 10 uM after 24 hrs by FACS analysis; assay type: functional
Jurkat [36] = experiment: Induction of cell cycle arrest in p53 deficient human Jurkat cells assessed as residual DNA synthesis at 10 uM after 24 hrs by FACS analysis; assay type: functional
PC-3 = experiment: Induction of cell cycle arrest in human PC3 cells expressing p53 gene assessed as residual DNA synthesis at 10 uM after 24 hrs by FACS analysis; assay type: functional

## O=C1NCCc2[nH]c(-c3ccncc3)cc21
HeLa [1]
  Activity: 236 kilobase
HeLa [2]
  Activity: 293 kilobase
HeLa [3]
  Activity: 226 kilobase
HeLa [4]
  Activity: 1.81 kilobase
HeLa [5]
  Activity: 1.81 kilobase
HeLa [6]
  Activity: 2.02 kilobase
HeLa [7]
  Activity: 1.92 kilobase
HeLa [8]
  Activity: 2.28 kilobase
NHDF [9]
  Activity: Active
HeLa [10]
  Activity: 26%
NHDF [11]
  Activity: Not Active
Rattus norvegicus
  AUC: 21 µM·h
[12]
  clearance: 30 mL/min/kg
[13]
  IC50: > 10 µM
[14]
  IC50: > 10 µM
[15]
  IC50: > 10 µM
[16]
  IC50: > 10 µM
SF-268 [17]
  IC50: 0.86 µM
K562 [18]
  IC50: 5.87 µM
Jurkat [19]
  IC50: 3.2 µM
SF-539
  IC50: 2.34 µM
SF-268 [20]
  Activity: 3%
SW480 [21]
  Activity: >20%
COLO 205 [22]
  Activity: 10%
OVCAR-8 [23]
  Activity: 3%
HCT-15
  Activity: 3%
A2780
  Activity: >20%
K562 [24]
  Activity: <3%
HeLa [25]
  Activity: 10%
Jurkat [26]
  Activity: >20%
[27]
  Activity: >20%
HCT-116
  Activity: 3%
NHDF [28]
  Activity: < 3%
SF-268 [29]
  Activity: <3%
K562 [30]
  Activity: 10%
COLO 205 [31]
  Activity: <3%
[32]
  Activity: <3%
OVCAR-8 [33]
  Activity: <3%
MCF7
  Activity: <3%
K562 [34]
  Activity: 10%
SW480 [35]
  Activity: <3%
Jurkat [36]
  Activity: <3%
PC-3
  Activity: <3%
